Data reported in PMC4663552, “Identification of Antiviral Agents Targeting Hepatitis B Virus Promoter from Extracts of Indonesian Marine Organisms by a Novel Cell-Based Screening Assay” (Marine Drugs, 2015).
Where two headings read alike, the source gives them in different places.

Legend:
[1] = Cytotoxicity in HepG2.2.15.7 cells (MTS assay); format: cell-based; conditions: human, 9 days post-treatment, read-out: CC50 (reduction of cell viability)
Procedure: (§1) HepG2.2.15.7 cells were seeded at 1 × 10^4 cells per well in a collagen coated 96-well plate (Corning, Corning, NY, USA) and incubated at 37 °C for 24 h before treatment. The tested compound was added to the culture medium at the indicated concentrations. The culture medium was exchanged every 3 days for fresh medium containing the compound. The treated cells and culture supernatants were harvested 9 days post-treatment and were subjected to MTS assay and estimation of HBV DNA, respectively. The culture supernatant was mixed with an equal volume of Sidestep lysis and stabilization buffer (Agilent Technologies, Santa Clara, CA, USA). The viral DNA included in the mixture was estimated by real-time quantitative PCR using the THUNDERBIRD Probe qPCR Mix (TOYOBO, Osaka, Japan). The forward and reverse primers targeting HBV surface region are 5′-[…]-3′ and 5′-[…]-3′, respectively. The fluorogenic probe was 5′-FAM-[…]-TAMRA-3 [40].

HBV = experiment: Anti HBV activity in HepG2.2.15.7 cells (supernatant HBV DNA, real-time qPCR); format: cell-based, Hepatitis B virus; conditions: for EC50: Hepatitis B virus, read-out: EC50 (inhibition of the HBV viral DNA release)
Procedure: as §1

HBV core promoter = experiment: Cell-based HBV core promoter assay (luciferase reporter, Huh7 GL4.18 CURS_BC_AeUS cells); conditions: Hepatitis B virus, Huh-7, 48 h incubation
Procedure: Huh7 GL4.18 CURS_BC_AeUS cells were seeded at 2 × 10^4 cells per well in a 48-well plate and then treated with 25 µg/mL each extracts 24 h after seeding cells. The treated cells were harvested 48 h post-treatment and then lysed with Cell culture lysis buffer (Promega, Madison, WI, USA). Luciferase activity was measured by using Luciferase assay systems (Promega, Madison, WI, USA). The resulting luminescence was detected as described above.

MCF-7 cells = tested on: MCF-7 cells; parameters: method as in PMID 18198840; conditions: MCF-7 cells (a breast cancer cell line); cited from earlier work
Tie2 kinase = tested on: Tie2 kinase; parameters: method as in PMID 15653332; conditions: cited from earlier work
[2] = 216 h, HepG2.2.15.7 cells, 9 days post-treatment, supernatant HBV DNA

SMILES | CC50 at 9 days [1] [nM] | Selectivity Index (CC50/EC50) (HBV; HepG2.2.15.7 cells) | EC50 (HBV; HepG2.2.15.7, 216 h) [nM] | IC50 (HBV core promoter) [nM] | Effect on cell cycle (MCF-7 cells) | EC50 (HBV; [2]) [nM] | Effect on Tie2 kinase activity (Tie2 kinase)
C=C1[C@H](CO)[C@@H](O)C[C@@H]1n1cnc2c(=O)[nH]c(N)nc21 [Entecavir, reference compound] | > 100000 | >4761 | 21 ± 3 |  |  |  | 
Oc1cc(Br)cc(Br)c1Oc1ccc(Br)cc1Br [Compound 1, 3,5-dibromo-2-(2,4-dibromophenoxy)-phenol] | 4190 ± 120 | 18.2 |  | 2300 | induces G1 phase cell cycle arrest | 230 ± 70 | suppressed activity of Tie2 kinase
Oc1cc(Br)c(Br)c(Br)c1Oc1ccc(Br)cc1Br [Compound 2, 3,4,5-tribromo-2-(2,4-dibromophenoxy)-phenol] | 10300 ± 3690 | 12.8 |  | 4900 |  | 800 ± 340 | 
